The values below come from patent US20100204203A1, “Chemical Compounds 637: Pyridopyrimidinediones as PDE4 Inhibitors” (priority 2007, published 2010).

The target of this experiment is recombinant Human Phosphodiesterase B2 (PDE4B2) (Homo sapiens, UniProt Q07343). The experiment can be described thus: Human Phosphodiesterase B2 Radiometric Assay (yttrium silicate SPA beads, [3H]cyclic AMP). The class given is biochemical. The settings on record: recombinant human PDE4B2, radiometric SPA assay, 8 nM [3H]cyclic AMP; read-out: PDE4B2 pIC50 (converted). The protocol: Human Phosphodiesterase B2 Radiometric Assay
Sequence of recombinant Human Phosphodiesterase B2 (PDE4B2) (Q07343 1-564 isoform Q07343-2): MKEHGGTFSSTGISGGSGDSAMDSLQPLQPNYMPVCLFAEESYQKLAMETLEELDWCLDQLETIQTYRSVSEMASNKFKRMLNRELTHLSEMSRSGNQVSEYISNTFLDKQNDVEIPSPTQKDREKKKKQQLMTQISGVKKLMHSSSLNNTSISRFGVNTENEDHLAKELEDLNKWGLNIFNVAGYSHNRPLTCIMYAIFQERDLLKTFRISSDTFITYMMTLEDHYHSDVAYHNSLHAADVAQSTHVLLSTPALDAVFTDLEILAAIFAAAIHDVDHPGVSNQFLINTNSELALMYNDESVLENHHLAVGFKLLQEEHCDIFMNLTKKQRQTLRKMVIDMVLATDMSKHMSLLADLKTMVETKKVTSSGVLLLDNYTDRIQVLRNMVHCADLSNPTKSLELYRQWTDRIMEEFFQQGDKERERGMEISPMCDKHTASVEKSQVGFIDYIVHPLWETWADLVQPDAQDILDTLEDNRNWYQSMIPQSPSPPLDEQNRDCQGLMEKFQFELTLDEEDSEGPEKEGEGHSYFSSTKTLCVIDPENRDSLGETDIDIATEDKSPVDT
The assay uses recombinant Human Phosphodiesterase B2 (PDE4B2) produced in house (PrAZL0163), stored at −20° C. This assay is based on the observation that 5′AMP, the product of the reaction catalysed by PDE4, binds preferentially to yttrium silicate SPA beads (Amersham Biosciences, UK) compared to the substrate, cAMP. Compounds at the appropriate concentration were preincubated at 30 C for 30 min with an assay buffer containing 50 mM HEPES (pH 7.5), 8.3 mM MgCl2, 1.7 mM EGTA, 0.01% (w/v) Brij° 35 and 0.1 mg/mL recombinant PDE4B2. The reaction was started by the addition of [3H]cyclic AMP to give a final concentration of 8 nM, and was stopped 20 minutes after the addition of the substrate by the addition of yttrium silicate SPA beads containing 18 mM Zn SO4. Bound [3H]cyclic AMP was measured using a Topcount NXT (Packard Bioscience, UK). pIC50 values (presented in Table 15) were determined using Xlfit3 curve fitting, using model 205.
In the case of `O=C(N[C@H]1CC[C@@H](n2c(=O)c3cc(F)cnc3n(-c3cccc(-c4ccc(CN5CC[C@@H](O)C5)cc4)c3)c2=O)CC1)c1cn2cc(F)ccc2n1` [Example 56, 6-fluoro-N-{cis-4-[6-fluoro-1-(4′-{[(3R)-3-hydroxypyrrolidin-1-yl]methyl}biphenyl-3-yl)-2,4-dioxo-1,4-dihydropyrido[2,3-d]pyrimidin-3(2H)-yl]cyclohexyl}imidazo[1,2-a]pyridine-2-carboxamide], the IC50 is 0.0251 nM.
`CN(C)Cc1ccc(-c2cccc(-n3c(=O)n([C@H]4CC[C@@H](N)CC4)c(=O)c4cc(F)cnc43)c2)cc1` [Example 49, 3-(cis-4-aminocyclohexyl)-1-{4′-[(dimethylamino)methyl]biphenyl-3-yl}-6-fluoropyrido[2,3-d]pyrimidine-2,4(1H,3H)-dione]: the IC50 is 12.6 nM.
Consider `N[C@H]1CC[C@@H](n2c(=O)c3cc(F)cnc3n(-c3cccc(-c4ccc(O)cc4CN4CCNC(=O)CC4)c3)c2=O)CC1` [Example 369, 3-(cis-4-aminocyclohexyl)-6-fluoro-1-{4′-hydroxy-2′-[(5-oxo-1,4-diazepan-1-yl)methyl]biphenyl-3-yl}pyrido[2,3-d]pyrimidine-2,4(1H,3H)-dione], for which the IC50 is 6.31 nM.
Regarding `O=c1c2cc(F)cnc2n(-c2cccc(-c3ccc(O)cc3CN3CC[C@H](O)C3)c2)c(=O)n1[C@H]1CC[C@@H](NCc2cn3cc(F)ccc3n2)CC1` [Example 331, 6-fluoro-3-(cis-4-{[(6-fluoroimidazo[1,2-a]pyridin-2-yl)methyl]amino}cyclohexyl)-1-(4′-hydroxy-2′-{[(3S)-3-hydroxypyrrolidin-1-yl]methyl}biphenyl-3-yl)pyrido[2,3-d]pyrimidine-2,4(1H,3H)-dione], the IC50 is 0.398 nM.
For the compound `CN(C)CCOc1cc(F)ccc1-c1cccc(-n2c(=O)n([C@H]3CC[C@@H](NC(=O)c4cn5cc(F)ccc5n4)CC3)c(=O)c3cc(F)cnc32)c1` [Example 82, N-{cis-4-[1-{2′-[2-(dimethylamino)ethoxy]-4′-fluorobiphenyl-3-yl}-6-fluoro-2,4-dioxo-1,4-dihydropyrido[2,3-d]pyrimidin-3 (2H)-yl]cyclohexyl}-6-fluoroimidazo[1,2-a]pyridine-2-carboxamide], the IC50 was 0.2 nM.
Consider `C[C@@H]1CN(Cc2cc(O)ccc2-c2cccc(-n3c(=O)n([C@H]4CC[C@@H](NCc5cn6cc(F)ccc6n5)CC4)c(=O)c4cc(F)cnc43)c2)C[C@H](C)O1` [Example 256], for which the IC50 was 0.0158 nM.
`O=C(N[C@H]1CC[C@@H](n2c(=O)c3cc(F)cnc3n(-c3cccc(Cc4ccccc4)c3)c2=O)CC1)c1cn2ccccc2n1` [Example 34, N-{cis-4-[1-(3-benzylphenyl)-6-fluoro-2,4-dioxo-1,4-dihydropyrido[2,3-c]pyrimidin-3(2H)-yl]cyclohexyl}imidazo[1,2-a]pyridine-2-carboxamide]: the IC50 is 0.126 nM.
In the case of `Cc1cc(C(=O)N[C@H]2CC[C@@H](n3c(=O)c4cc(F)cnc4n(-c4cccc(-c5ccc(CN6CCN(C(C)C)CC6)cc5)c4)c3=O)CC2)nn1C` [Example 114, N-{cis-4-[6-fluoro-1-{4′-[(4-isopropylpiperazin-1-yl)methyl]biphenyl-3-yl}-2,4-dioxo-1,4-dihydropyrido[2,3-d]pyrimidin-3(2H)-yl]cyclohexyl}-1,5-dimethyl-1H-pyrazole-3-carboxamide], the IC50 is 0.00794 nM.
Turning to `O=c1c2cc(F)cnc2n(-c2cccc(-c3ccc(O)cc3CN3CCOCC3)c2)c(=O)n1[C@H]1CC[C@@H](NCc2cn3c(n2)CCCC3)CC1` [Example 252, 6-Fluoro-1-[4′-hydroxy-2′-(morpholin-4-ylmethyl)biphenyl-3-yl]-3-{cis-4-[(5,6,7,8-tetrahydroimidazo[1,2-a]pyridin-2-ylmethyl)amino]cyclohexyl}pyrido[2,3-d]pyrimidine-2,4(1H,3H)-dione], the IC50 was 0.398 nM.
For `O=C(N[C@H]1CC[C@@H](n2c(=O)c3cc(F)cnc3n(-c3cccc(-c4ccc(C(F)(F)F)cc4)c3)c2=O)CC1)c1cn2cc(F)ccc2n1` [Example 29, 6-fluoro-N-{cis-4-[6-fluoro-2,4-dioxo-1-[4′-(trifluoromethyl)biphenyl-3-yl]-1,4-dihydropyrido[2,3-d]pyrimidin-3(2H)-yl]cyclohexyl}imidazo[1,2-a]pyridine-2-carboxamide.] the value was 0.0794 nM; for `COCCN(C)Cc1cc(O)ccc1-c1cccc(-n2c(=O)n([C@H]3CC[C@@H](NCc4cn5cc(F)ccc5n4)CC3)c(=O)c3cc(F)cnc32)c1` [Example 327, 6-fluoro-3-(cis-4-{[(6-fluoroimidazo[1,2-a]pyridin-2-yl)methyl]amino}cyclohexyl)-1-(4′-hydroxy-2′-{[(2-methoxyethyl)(methyl)amino]methyl}biphenyl-3-yl)pyrido[2,3-d]pyrimidine-2,4(1H,3H)-dione], 0.251 nM.
Take `CN(C)CCCOc1cc(F)ccc1-c1cccc(-n2c(=O)n([C@H]3CC[C@@H](NC(=O)c4cn5cc(F)ccc5n4)CC3)c(=O)c3cc(F)cnc32)c1` [Example 84, N-{cis-4-[1-{2′-[3-(dimethylamino)propoxy]-4′-fluorobiphenyl-3-yl}-6-fluoro-2,4-dioxo-1,4-dihydropyrido[2,3-d]pyrimidin-3(2H)-yl]cyclohexyl}-6-fluoroimidazo[1,2-a]pyridine-2-carboxamide]: the IC50 was 0.2 nM.
On to `O=C(NCc1ccccc1)c1cccc(-n2c(=O)n([C@H]3CC[C@@H](NC(=O)c4cn5cc(F)ccc5n4)CC3)c(=O)c3cc(F)cnc32)c1` [Example 92, N-{cis-4-[1-{3-[(benzylamino)carbonyl]phenyl}-6-fluoro-2,4-dioxo-1,4-dihydropyrido[2,3-d]pyrimidin-3(2H)-yl]cyclohexyl}-6-fluoroimidazo[1,2-a]pyridine-2-carboxamide], for which the IC50 is 0.631 nM.
Turning to `C[C@@H](CO)N(C)Cc1cc(O)ccc1-c1cccc(-n2c(=O)n([C@H]3CC[C@@H](NCc4cn5cc(F)ccc5n4)CC3)c(=O)c3cc(F)cnc32)c1` [Example 324, 6-fluoro-3-(cis-4-{[(6-fluoroimidazo[1,2-a]pyridin-2-yl)methyl]amino}cyclohexyl)-1-(4′-hydroxy-2′-{[[(1S)-2-hydroxy-1-methylethyl](methyl)amino]methyl}biphenyl-3-yl)pyrido[2,3-d]pyrimidine-2,4(1H,3H)-dione], the IC50 was 0.501 nM.
For `CCN(CC)Cc1ccc(-c2cccc(-n3c(=O)n([C@H]4CC[C@@H](NC(=O)C5(N(C)C)CC5)CC4)c(=O)c4cc(F)cnc43)c2)cc1` [Example 127, N-{cis-4-[1-{4′-[(diethylamino)methyl]biphenyl-3-yl}-6-fluoro-2,4-dioxo-1,4-dihydropyrido[2,3-d]pyrimidin-3(2H)-yl]cyclohexyl}-1-(dimethylamino)cyclopropanecarboxamide], the IC50 is 0.2 nM.
As to `Cc1c(CN[C@H]2CC[C@@H](n3c(=O)c4cc(F)cnc4n(-c4cccc(-c5ccc(O)cc5CN5CCOCC5)c4)c3=O)CC2)nc2ccccn12` [Example 336, 6-fluoro-1-[4′-hydroxy-2′-(morpholin-4-ylmethyl)biphenyl-3-yl]-3-(cis-4-{[(3-methylimidazo[1,2-a]pyridin-2-yl)methyl]amino}cyclohexyl)pyrido[2,3-d]pyrimidine-2,4(1H,3H)-dione], the IC50 was 0.0316 nM.
As for `CN(C)C1(C(=O)N[C@H]2CC[C@@H](n3c(=O)c4cc(F)cnc4n(-c4cccc(-c5ccc(CN6CCN(CC(=O)N7CCOCC7)CC6)cc5)c4)c3=O)CC2)CC1` [Example 212, 1-(dimethylamino)-N-{cis-4-[6-fluoro-1-(4′-{[4-(2-morpholin-4-yl-2-oxoethyl)piperazin-1-yl]methyl}biphenyl-3-yl)-2,4-dioxo-1,4-dihydropyrido[2,3-d]pyrimidin-3(2H)-yl]cyclohexyl} cyclopropanecarboxamide], the IC50 is 0.0126 nM.
Consider `CNC1CCN(Cc2ccc(-c3cccc(-n4c(=O)n([C@H]5CC[C@@H](NC(=O)c6cn7cc(F)ccc7n6)CC5)c(=O)c5cc(F)cnc54)c3)cc2)CC1` [Example 61, 6-fluoro-N-{cis-4-[6-fluoro-1-(4′-{[4-(methylamino)piperidin-1-yl]methyl}biphenyl-3-yl)-2,4-dioxo-1,4-dihydropyrido[2,3-d]pyrimidin-3(2H)-yl]cyclohexyl}imidazo[1,2-a]pyridine-2-carboxamide], for which the IC50 is 0.02 nM.
For `CN(Cc1cc(O)ccc1-c1cccc(-n2c(=O)n([C@H]3CC[C@@H](NCc4cn5cc(F)ccc5n4)CC3)c(=O)c3cc(F)cnc32)c1)CC1(O)CC1` [Example 322, 6-fluoro-3-(cis-4-{[(6-fluoroimidazo[1,2-c]pyridin-2-yl)methyl]amino}cyclohexyl)-1-(4′-hydroxy-2′-{[[(1-hydroxycyclopropyl)methyl](methyl)amino]methyl}biphenyl-3-yl)pyrido[2,3-d]pyrimidine-2,4(1H,3H)-dione] the value was 0.251 nM.
For `Cc1cc(C(=O)N[C@H]2CC[C@@H](n3c(=O)c4cc(F)cnc4n(-c4cccc(-c5ccc(CN(C)CCN(C)C)cc5)c4)c3=O)CC2)nn1C` [Example 113, N-{cis-4-[1-(4′-{[[2-(dimethylamino)ethyl](methyl)amino]methyl}biphenyl-3-yl)-6-fluoro-2,4-dioxo-1,4-dihydropyrido[2,3-d]pyrimidin-3(2H)-yl]cyclohexyl}-1,5-dimethyl-1H-pyrazole-3-carboxamide] the value was 0.0126 nM.
